# Results: patent publication US11401516B2, “Channel modulators” (AUCKLAND UNISERVICES LIMITED, priority 2014, dated 2022)
# “Also recorded” adds a separate entry of the source.
# Molecular target: T1, Cx43 GJ plaques in ARPE-19 cells (Homo sapiens, UniProt P17302)
# T1 construct: a native human cell line, retinal pigmented epithelial cells (ARPE-19), which reportedly has an abundant expression of Cx43; endogenous in cells; host or cells: ARPE-19
# Assay: Immunocytochemistry and quantification of Cx43 plaques
# Assay type: cell-based
# Experimental: In the below Examples 3, 6 and 7 using human retinal epithelial (ARPE-19) cells, the cells were grown in DMEM/F: 12 (Invitrogen), supplemented with 10% fetal calf serum (FCS), 100 units/mL of penicillin, 100 μg/mL of streptomycin, and 0.25 μg/mL of Fungizone® Antimycotic (Invitrogen).
# Cells were seeded at 0.05×10^6 per well in 8-well sterile glass microscope chamber slides (Falcon, Corning Life Sciences), and the monolayer was labeled for connexin expression at ˜90-100% confluency. The following steps were conducted at room temperature. Cells were fixed in 4% paraformaldehyde (P6148, Sigma-Aldrich) in PBS with 0.1 mM CaCl2 for 10 min, and washed three times in PBS with 0.1 mM CaCl2. After blocking in 10% normal goat serum in PBS with 0.1 mM CaCl2 for one hour, cells were incubated overnight in primary antibody solution (rabbit anti-Cx43, Sigma C6219) diluted in PBS with 0.1 mM CaCl2. The chamber slides were then washed three times with PBS containing 0.1 mM CaCl2 for 10 minutes, and incubated for a further 45 minutes in goat anti-rabbit Alexa 568 conjugated secondary antibody (Invitrogen #A11036). Cells were counter labeled with DAPI for 5 minutes and washed three times with PBS containing 0.1 mM CaCl2. Chamber wells were removed and cells were mounted anti-fade medium (Citiflour AF-1). Dilution ratios for specified primary and secondary antibodies were used according to manufacturer's recommendations.
# ARPE-19 cells were grown until confluent in 8-well glass chamber-slides (BD Falcon). Confluent monolayers of ARPE-19 cells were incubated at a final concentration of 5 to 500 μM) Tonabersat, and/or 10 mM NH4Cl (H. Qin, et al., The Journal of biological chemistry 278, 30005 (Aug. 8, 2003)) in culture medium for 1 or 6 hours. Cells were fixed in 4% PFA (ProSciTech) at pH 7.4 for 10 min at room temperature, permeabilized with 0.05% Triton-X100 in PBS, and incubated in 10% normal goat serum to block non-specific labelling. Cells were rinsed three times with PBS containing 0.1 mM CaCl2 between each fixation, permeabilization, and blocking steps. Cx43 polyclonal rabbit antibody (C6219, Sigma, 1:2000) was applied for 24 hours, followed by a goat anti-rabbit Alexa Fluor® 568 secondary antibody (Invitrogen, 1:200) for 45 minutes. Nuclei were counterstained with DAPI (Invitrogen) at 10,000-fold dilution for 5 mins, and mounted with Citifluor™ mounting medium. Images were visualised and captured using a 63× oil immersion lens on an Olympus FV1000 upright confocal laser scanning microscope and software. The transfluor feature in MetaXpress® Image acquisition and analysis software (Version 5.3.0.1, Molecular Devices) was used to automate and quantify the total area of Cx43 plaques per image. Results represent mean±standard error and statistical tests were conducted using one-way ANOVA and Tukey's multiple comparisons test.
# T1 sequence (P17302 2-382 limits assumed): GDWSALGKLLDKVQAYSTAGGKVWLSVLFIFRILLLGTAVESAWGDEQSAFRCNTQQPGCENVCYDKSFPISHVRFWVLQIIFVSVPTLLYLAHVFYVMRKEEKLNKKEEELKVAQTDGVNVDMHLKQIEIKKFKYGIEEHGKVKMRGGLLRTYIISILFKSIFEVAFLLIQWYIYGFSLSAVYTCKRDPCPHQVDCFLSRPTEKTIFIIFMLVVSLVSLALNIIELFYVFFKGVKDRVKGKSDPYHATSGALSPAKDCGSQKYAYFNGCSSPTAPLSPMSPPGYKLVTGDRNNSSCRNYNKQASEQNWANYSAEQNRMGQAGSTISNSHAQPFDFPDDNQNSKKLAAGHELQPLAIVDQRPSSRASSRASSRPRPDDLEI
structure (smiles),measurement,setting,value
"CC(=O)c1ccc2c(c1)[C@H](NC(=O)c1ccc(F)c(Cl)c1)[C@H](O)C(C)(C)O2 [Tonabersat, N-[(3S,4S)-6-acetyl-3-hydroxy-2,2-dimethyl-3,4-dihydrochromen-4-yl]-3-chloro-4-fluorobenzamide]","total area of Cx43 plaques per cell, normalized to untreated control","5 μM, 10 μM or 50 μM, 1 hour",no significant reduction in Cx43 plaques
same,Connexin43 gap junction labelling,"50 μM, 6 hours",most junctions have been internalised or lost; also recorded: total gap junction loss at cell-cell interfaces
same,increase in Cx43 labelling with 10 mM NH4Cl compared to Tonabersat alone,"100 μM, 1 hour",104.8%
same,"total area of Cx43 plaques per cell, normalized to untreated control","100 μM, 1 hour",52.8±5.6%
same,"total area of Cx43 plaques per cell, normalized to untreated control","100 μM, 6 hours",66.5±5.4%
same,increase in Cx43 labelling with 10 mM NH4Cl compared to Tonabersat alone,"200 μM, 1 hour",65.4%
same,"total area of Cx43 plaques per cell, normalized to untreated control","200 μM, 1 hour",63.2±5.6%
same,"total area of Cx43 plaques per cell, normalized to untreated control","200 μM, 6 hours",62.5±2.3%
same,"total area of Cx43 plaques per cell, normalized to untreated control","500 μM, 6 hours",60.2±13.6%
same,Connexin43 gap junction labelling,"100 micromolar, 6 hours",very little Connexin43 labelling remains
